ChEMBL document CHEMBL5441456, “ASAP - SARS-CoV-2 nsp3 macrodomain dose response” (2024)
pIC50: −log10 of the molar value. Values joined by “and” are separate entries in the source; they are usually repeats but may differ in a detail not shown here. Equal entries are not always repeated.

target: Replicase polyprotein 1ab (Severe acute respiratory syndrome coronavirus 2, UniProt P0DTD1); experiment: Functional biochemical assay to identify treatments for viral infectious disease that targets SARS-COV-2 nsp3 macrodomain, whereby the mechanism of action displaces an ADP-Ribose modified peptide from the binding site. Utilizing a time-resolved fluorescence method to measure binding by reading the emitted fluorescence intensity in two wavelengths.

Structure (SMILES)	pIC50
COc1ccc([C@@H](NC(=O)c2ncnc3[nH]ccc23)C(C)(C)C#N)cc1	< 4.00
CC(C)[C@@H](Nc1ncnc2[nH]c(-c3cn(C)nc3C3CC3)cc12)c1ccc2c(c1)OCCO2	5.92 and 5.93
Cn1cc([C@@H](NC(=O)c2c[nH]c3c(NC(=O)NC4CC4)cccc23)C2CCC2)cn1	< 4.00
COCc1cc(CNc2ccc([C@@H](CC(=O)O)NC(=O)c3ncnc4[nH]ccc34)cc2)on1	4.97 and 4.91
Cn1ncc2c(N[C@@H](c3ccc4c(c3)OCCO4)C3CC3)ncnc21	< 4.00
O=C(O)CC(NC(=O)c1ncnc2[nH]ccc12)c1ccc(NC2C[C@H]3CC(CO)C[C@@H]23)cc1 (stereo partly drawn)	< 4.00
O=C(Nc1cccc2c(C(=O)N[C@H]3c4ccccc4C[C@H]3C(=O)O)c[nH]c12)NC1CC1	5.11 and 5.18
CC(C)[C@@H](Nc1ncnc2[nH]c(-c3cnc(C#N)nc3)cc12)c1ccc2c(c1)OCCO2	5.60
CC(C)[C@H](Nc1ncnc2[nH]c(C(=O)N[C@@H]3CCN(C)C3)cc12)c1ccc2c(c1)S(=O)(=O)CCC2	5.50 and 5.54 and 5.42 and 5.79
CC(C)[C@@H](Nc1ncnc2[nH]c(C(=O)Nc3ncco3)cc12)c1ccc2c(c1)OCCO2	5.14 and 5.23
CC(C)[C@@H](Nc1ncnc2[nH]c(-c3cnn(CC(N)=O)c3)cc12)c1ccc2c(n1)OCCO2	6.62 and 7.17 and 6.87
C[C@@H](Cc1ccc(Cl)s1)Nc1ccc([C@@H](CC(=O)O)NC(=O)c2ncnc3[nH]ccc23)cc1	4.33
CC(C)[C@H](Nc1ncnc2[nH]c(-c3cnn(C)c3C#N)cc12)c1ccc2c(n1)NC(=O)CO2	7.00 and 7.02
O=C(Nc1ccc(C(=O)N[C@@H]2c3ccccc3C[C@@H]2C(=O)O)cc1)c1ccc(N2CCC(O)CC2)cc1	< 4.00
CCNC(=O)c1cc2c(N[C@@H](c3ccc4c(c3)S(=O)(=O)CCC4)C(C)C)ncnc2[nH]1	7.25 and 7.00 and 7.70 and 7.47 and 7.72 and 7.48 and 7.28 and 7.49 and 7.38
Cc1[nH]c2ncnc(NC(=O)c3ccc(N(C)C)nc3)c2c1C	< 4.00
COc1ccc([C@@H](CC(=O)O)NC(=O)c2cc3cccc(NC(=O)NC4CC4)c3[nH]2)cc1	< 4.00
CC(C)[C@@H](Nc1ncnc2[nH]c(C(=O)NCCC3CN(C)C3)cc12)c1ccc2c(c1)OCCO2	6.05
CC(=O)N1CC(NC(=O)c2cc3c(N[C@@H](c4ccc5c(c4)OCCO5)C(C)C)ncnc3[nH]2)C1	6.10 and 5.70
OC[C@@]1(Cc2ccc(F)cc2)CCN(c2ncnc3[nH]ccc23)C1	< 4.00
CNC(=N)C[C@@H](NC(=O)c1ncnc2[nH]ccc12)c1ccc(Br)cc1	< 4.00
CC(C)[C@@H](NCc1ccc(-n2cccn2)cc1)c1ccc2c(c1)OCCO2	< 4.00
CC(C)[C@@H](CCN(C)C(=O)c1nn(C)c2ccc(F)cc12)Nc1ncnc2[nH]ccc12	< 4.00
O=C(N[C@@H](C(=O)O)c1ccc2c(c1)CCO2)c1ncnc2[nH]ccc12	4.11 and 4.13

Structure (SMILES)	pIC50
CC(C)[C@H](Nc1ncnc(O)c1Cl)c1ccc2c(c1)S(=O)(=O)CCC2	< 4.00
CC(C)[C@@H](Nc1ncnc2[nH]c(C(=O)NCc3ccno3)cc12)c1ccc2c(c1)OCCO2	6.10 and 6.08
CC(C)c1nc(N[C@@H](c2ccc3c(c2)OCCO3)C(C)C)c2cc[nH]c2n1	< 4.00
Cc1nnc(Nc2ccc(C(=O)N[C@@H]3c4cccc(O)c4C[C@@H]3C(=O)O)cc2)o1	5.15 and 5.13
O=C(Nc1cccc2c(C(=O)Nc3ccccc3C(=O)O)c[nH]c12)NC1CC1	4.70
CC(C)[C@@H](CN1CCCCC1)Nc1ncnc2[nH]ccc12	< 4.00
CNC(=O)c1cccc(-c2cc3c(N[C@@H](c4ccc5c(c4)S(=O)(=O)CCC5)C(C)C)ncnc3[nH]2)c1	5.17
CC(C)[C@@H](Nc1ncnc2[nH]c(-c3ccnn3C3CCC3)cc12)c1ccc2c(c1)OCCO2	5.25 and 5.06
CC(C)[C@@H](Nc1ncnc2[nH]c(-c3ccnn3C3CC3)cc12)c1ccc2c(c1)OCCO2	5.97 and 5.91
Cc1nnc(Nc2ccc(C(=O)N[C@H]3c4cccc(O)c4C[C@@H]3C(=O)O)cc2)o1	< 4.00
Cc1[nH]c2ncnc(NC(=O)c3cccc(Cl)n3)c2c1C	< 4.00
CC(C)[C@@H](Nc1ncnc2[nH]c(-c3[nH]ncc3C3CC3)cc12)c1ccc2c(c1)OCCO2	4.79 and 4.85
COCc1cc(CNc2ccc([C@@H](CC(=O)O)NC(=O)c3c[nH]c4ncncc34)cc2)on1	< 4.00
CNC(=O)c1cc2c(N[C@H](c3ccc4c(c3)S(=O)(=O)CCC4)C(C)C)ncnc2[nH]1	5.75
CC(C)[C@@H](Nc1nc(C2CC2)nc2[nH]ccc12)c1ccc2c(c1)OCCO2	< 4.00
O=C(N[C@@H](CCO)c1ccccc1F)c1ncnc2[nH]ccc12	< 4.00
CC(C)[C@@H](Nc1ncnc2[nH]c(-c3cccc(CN4CCCS4(=O)=O)c3)cc12)c1ccc2c(c1)OCCO2	< 4.00
CC(C)[C@H]1N(c2ncnc3[nH]ccc23)CC12CCOCC2	< 4.00
O=C(O)[C@@H]1CC2(CCCCC2)CN1c1ncnc2[nH]ccc12	< 4.00
Cc1[nH]c2ncnc(NCc3ccco3)c2c1C	< 4.00
CC(C)[C@@H](Nc1ccc(NC(=O)NC2CC2)cc1)c1ccc2c(c1)OCCO2	< 4.00
O=C(O)C[C@H](NC(=O)c1ccc(NC(=O)NC2CC2)cc1)c1cccnc1	4.30 and 4.23
CC(=O)N1CCN(Cc2cccc(-c3cc4c(N[C@@H](c5ccc6c(c5)S(=O)(=O)CCC6)C(C)C)ncnc4[nH]3)c2)CC1	6.59 and 6.73 and 6.49
CC(C)[C@@H](Nc1cnc(C(=O)O)cn1)c1ccc2c(c1)OCCO2	< 4.00

Structure (SMILES)	pIC50
CNc1cc(N[C@@H](c2ccc3c(c2)S(=O)(=O)CCC3)C(C)C)ncn1	5.22
COc1ccc([C@@H](CC(=O)O)NC(=O)c2ncnc3[nH]ccc23)cc1	5.68 and 5.67 and 5.43
Cc1[nH]c2ncnc(NC(=O)c3ccnnc3)c2c1C	< 4.00
CC(C)[C@H](Nc1cc(-n2ccnn2)ncn1)c1ccc2c(c1)S(=O)(=O)CCC2	< 4.00
CC(C)[C@@H](Nc1cc(N2CCOCC2)ncn1)c1ccc2c(c1)S(=O)(=O)CCC2	< 4.00
CCCn1nccc1-c1cc2c(N[C@@H](c3ccc4c(c3)OCCO4)C(C)C)ncnc2[nH]1	5.66 and 5.61 and 5.58
O=S(=O)(Cc1ccccc1F)Nc1cnc2[nH]ccc2c1	< 4.00
CNC(=O)Cn1cc(-c2cc3c(N[C@H](c4ccc5c(c4)OCCO5)C(C)C)ncnc3[nH]2)cn1	6.67 and 6.65
CC(C)[C@@H](Nc1ncnc2[nH]cc(C(N)=O)c12)c1ccc2c(c1)OCCO2	6.10 and 6.06
C[C@@H](CO)Nc1ncnc2[nH]c(C(=O)OC(C)(C)C)cc12	< 3.91
CC(C)[C@@H](CCN(C)C(=O)c1cccc2cc(F)ccc12)Nc1ncnc2[nH]ccc12	< 4.00
CC(C)[C@@H](Nc1cnc2[nH]cnc2c1)c1ccc2c(c1)S(=O)(=O)CCC2	< 4.00
CCNC(=O)c1cc2c(N[C@H](c3ccccc3N(C)S(C)(=O)=O)C(C)C)ncnc2[nH]1	< 4.00
CC(C)[C@H](Nc1ncnc(N)c1Cl)c1ccc2c(c1)S(=O)(=O)CCC2	5.53 and 5.81
Cc1cocc1-c1cc2c(N[C@@H](c3ccc4c(c3)OCCO4)C(C)C)ncnc2[nH]1	5.60 and 5.59
Cc1[nH]c2ncnc(NC(=O)c3ccc(-n4cccc4)nc3)c2c1C	< 4.00
CC(=O)c1ccc(-c2cc3c(N[C@@H](c4ccc5c(c4)OCCO5)C(C)C)ncnc3[nH]2)[nH]1	5.53 and 5.49
CC(C)[C@@H](Nc1ncnc(N2CCCC2)n1)c1ccc2c(c1)S(=O)(=O)CCC2	< 4.00
Cc1c(-c2cc3c(N[C@@H](c4ccc5c(c4)OCCO5)C(C)C)ncnc3[nH]2)cnn1C	6.19 and 6.15
Cc1[nH]c2ncnc(NC(=O)[C@@H]3CCCc4ncccc43)c2c1C	< 4.00
CCC[C@H](Nc1ncnc2[nH]ccc12)C(=O)O	< 4.00
CC(C)[C@@H](Nc1ncnc2[nH]c(C(=O)NCCC(F)F)cc12)c1ccc2c(c1)OCCO2	6.08 and 5.87
O=C(O)[C@@H](CC1CC1)Nc1ncnc2[nH]ccc12	< 4.00
CC(C)[C@@H](Nc1ncnc2[nH]c(C3=CCS(=O)(=O)C3)cc12)c1ccc2c(c1)S(=O)(=O)CCC2	6.97 and 6.77 and 6.93

Structure (SMILES)	pIC50
CC(C)[C@@H](Nc1ncnc2[nH]c(C(=O)NCC3(C#N)CC3)cc12)c1ccc2c(c1)OCCO2	5.96 and 5.58
Cc1ccc(C(=O)N2CCC(c3ccn4ncc(C(=O)N[C@@H]5CCC[C@@H]5C(=O)O)c4c3)CC2)cc1	4.68 and 4.66
CC(C)[C@@H](Nc1ncnc2[nH]c(C(=O)Nc3cnoc3)cc12)c1ccc2c(c1)OCCO2	5.71 and 5.24
CC(C)[C@@H](Nc1ncnc2[nH]cc(C(=O)NC3CC3)c12)c1ccc2c(c1)S(=O)(=O)CCC2	6.59 and 6.84 and 6.82
CC(=O)Nc1ccc(-c2cc3c(N[C@@H](c4ccc5c(c4)S(=O)(=O)CCC5)C(C)C)ncnc3[nH]2)cc1F	6.69 and 6.92
CC(C)[C@@H](Nc1ncnc2[nH]ccc12)c1ccc2c(c1)OCC(=O)N2	4.57 and 4.62
CC(C)[C@H](Nc1ncnc2[nH]c(-c3cnn(CC(N)=O)c3)cc12)c1ccc2c(c1)NC(=O)CO2	< 4.00
O=C(O)[C@@H](CC1CCCCC1)Nc1ncnc2[nH]ccc12	4.13 and 4.15
CN1CC[C@@H]1[C@@H](Nc1ncnc2[nH]ccc12)c1ccc2c(c1)OCCO2	< 4.00 and 4.18
COCCC1(NC(=O)c2cc3c(N[C@@H](c4ccc5c(c4)OCCO5)C(C)C)ncnc3[nH]2)CC1	5.55 and 5.35
CC(C)[C@H](Nc1ncnc2[nH]c(-c3cnn(C)c3C#N)cc12)c1ccc2c(c1)NC(=O)CO2	6.75
CC(C)[C@H](Nc1ncnc2[nH]c(-c3cnn(CC(=O)N(C)C)c3)cc12)c1ccc2c(c1)S(=O)(=O)CCC2	5.26 and 5.37
Cc1[nH]c2ncnc(NC(=O)c3cccnn3)c2c1C	< 4.00
COc1ccc(C(=O)N2CCC(c3ccn4ncc(C(=O)N[C@@H]5CCC[C@@H]5C(=O)O)c4c3)CC2)cc1	4.69 and 4.61
CC(C)[C@@H](Nc1ncnc2[nH]c(C(=O)NCC3(CO)CC3)cc12)c1ccc2c(c1)OCCO2	6.10 and 5.67
Cc1nccc(C(=O)N2CCC(c3ccn4ncc(C(=O)N5CCCCC5)c4c3)CC2)n1	< 4.00
C[C@@H]1Oc2ccc(Nc3ncnc4[nH]ccc34)cc2NC1=O	< 4.00
CC(C)[C@@H](c1ccc2c(c1)S(=O)(=O)CCC2)n1c(=O)[nH]c2c(N)ccnc21	< 4.00
CC(C)[C@H](Nc1ncnc2ccoc12)c1ccc2c(c1)S(=O)(=O)CCC2	< 4.00
CCNC(=O)c1cc2c(N[C@H](c3ccc4c(n3)S(=O)(=O)CCO4)C(C)C)ncnc2[nH]1	6.96
Brc1ccc(-n2nnnc2Sc2ncnc3[nH]ccc23)cc1	< 3.91
